The values that follow come from ChEMBL document CHEMBL1201862, “PubChem BioAssay data set” (2004).

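Each compound was tested at five concentrations against cells in 96-well plates for 48 hours. Here, GI50 denotes the concentration required for 50% inhibition of growth.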 Activity calls are given as the source filed them. No stated cut-off is given here; in the data, active = GI50 up to about 1.1 µM and inactive = higher. Some results are limits rather than exact numbers.

Among the test systems are A498; ACHN; CCRF-CEM; HCC 2998; HT-29; K562; MOLT-4; Malme-3M; NCI-H226; OVCAR-8; SF-268; SF-539; SK-MEL-2; SK-OV-3; UO-31; HCT-15; BT-549; MCF7; T47D.
Holding throughout (assay): DTP human tumour cell line panel, 48 h

Broadly, the GI50 is the concentration giving 50% growth inhibition. On to `C/C(CC(=O)Nc1ccc(C)c(C)c1)=N\NC(N)=O`, for which the GI50 in the assay on A498, in the assay with ACHN, with CCRF-CEM, with HCC 2998, in the assay with HT-29 and in the assay with K562 was > 100 µM (inactive) in each case. The GI50 with MOLT-4 is > 100 µM (inactive); in the assay on Malme-3M, > 100 µM (inactive); with NCI-H226 it was 57.9 µM (inactive); in the assay with OVCAR-8 it was > 100 µM (inactive); with SF-268, > 100 µM (inactive); in the assay with SF-539, > 100 µM (inactive). In addition, the GI50 in the assay on SK-MEL-2, with SK-OV-3 and in the assay on UO-31 was > 100 µM (inactive) in each case.

On to `CCOC(=O)C12CCSC1C1(C#N)C(C#N)=CC2(N=P(c2ccccc2)(c2ccccc2)c2ccccc2)n2c(=O)n(-c3ccccc3)c(=O)n21` (stereo not given), for which the GI50 was 51.5 µM (inactive) in the assay with A498; 40.2 µM (inactive) in the assay on ACHN; 34.5 µM (inactive) in the assay with CCRF-CEM; 27.7 µM (inactive) with HCC 2998; 34.8 µM in the assay with HCT-15; 39.8 µM (inactive) with HT-29. For the same molecule, the GI50 in the assay on K562 is 33.9 µM (inactive); in the assay on MOLT-4 it was 30.3 µM (inactive); in the assay on Malme-3M it was 44.6 µM (inactive); in the assay on NCI-H226 it was 41.3 µM (inactive); with OVCAR-8, 47.1 µM (inactive); in the assay with SF-268, 35.1 µM (inactive). Also, the GI50 with SF-539 is 73.6 µM (inactive); in the assay on SK-MEL-2 it was 48.6 µM (inactive); in the assay on UO-31 it was 24.2 µM (inactive).

With `C[C@]12CC[C@H]3[C@@H](CC=C4C[C@@H](O)CC[C@@]43C)[C@@H]1C/C(=C\c1cccnc1)[C@@H]2O`, the GI50 in the assay with A498 is 7.14 µM (inactive); in the assay with ACHN, 5.82 µM (inactive); in the assay on BT-549, 13.5 µM (inactive); with CCRF-CEM, 23.6 µM (inactive); in the assay on HCT-15 it was 38.1 µM; in the assay on HT-29, 43.8 µM (inactive). Further, the GI50 in the assay on MCF7 was 6.75 µM (inactive); with Malme-3M it was > 100 µM (inactive); with NCI-H226, 5.25 µM (inactive); with OVCAR-8 it was 6.89 µM (inactive); in the assay on SF-539 it was 14 µM (inactive); in the assay on SK-MEL-2, 30.8 µM (inactive). Moreover, the GI50 in the assay with SK-OV-3 was 10.8 µM (inactive); in the assay on UO-31 it was 55.5 µM (inactive).

Regarding `COc1ccc(C[C@H]2COC(=O)[C@@H]2Cc2ccccc2)cc1OC`, the GI50 in the assay on A498, in the assay on ACHN, with CCRF-CEM, in the assay with HT-29, in the assay on K562 and in the assay with MCF7 was > 100 µM (inactive) in each case. The GI50 with MOLT-4, with Malme-3M, with NCI-H226, with OVCAR-8, in the assay with SK-OV-3 and with T47D was > 100 µM (inactive) throughout.

With `CCc1n[nH]c(=O)n1/N=C/c1ccccc1O`, the GI50 in the assay with ACHN is > 100 µM (inactive); with BT-549, > 100 µM (inactive); in the assay on CCRF-CEM, > 100 µM (inactive); in the assay on HCC 2998, > 100 µM (inactive); in the assay on HCT-15, above 100 µM; with K562, > 100 µM (inactive). In addition, the GI50 with MCF7, in the assay on MOLT-4, in the assay with OVCAR-8, in the assay on SF-268, with SF-539 and in the assay with SK-MEL-2 was > 100 µM (inactive) throughout. Further, the GI50 in the assay with SK-OV-3 and with UO-31 was > 100 µM (inactive) in each case.

Consider `Cc1ccc(S(=O)(=O)CC2(Br)CCc3ccccc3C2=O)cc1` (stereo not given), for which the GI50 with A498 was 25.8 µM (inactive); with ACHN it was 19.8 µM (inactive); with BT-549, 18.3 µM (inactive); with HCT-15, 19.8 µM; in the assay on HT-29 it was 20.8 µM (inactive); in the assay on K562 it was 5.89 µM (inactive). The GI50 with MCF7 is 24.5 µM (inactive); in the assay with MOLT-4, 2.86 µM (inactive); in the assay with Malme-3M, 33.5 µM (inactive); with NCI-H226, 41.8 µM (inactive); with OVCAR-8, 27.4 µM (inactive); in the assay with SF-268, 16.6 µM (inactive). Besides, the GI50 with SF-539 is 33.7 µM (inactive); in the assay with SK-MEL-2 it was 21.4 µM (inactive); with SK-OV-3, 39.7 µM (inactive); with UO-31, 14.8 µM (inactive).

For `CCOC(=O)c1nc(SC)sc1NC(=O)c1ccc(OC)cc1`, the GI50 in the assay on A498 was 15.8 µM (inactive); with ACHN it was 47.8 µM (inactive); with CCRF-CEM, > 100 µM (inactive); in the assay with HCC 2998, 43.6 µM (inactive); in the assay with HCT-15, above 100 µM; with HT-29, 66.2 µM (inactive). In addition, the GI50 was > 100 µM (inactive) in the assay on K562; 46.5 µM (inactive) with MCF7; > 100 µM (inactive) with MOLT-4; 35.3 µM (inactive) with Malme-3M; 28.1 µM (inactive) with NCI-H226; 58.7 µM (inactive) with OVCAR-8. Besides, the GI50 with SF-268 was > 100 µM (inactive); with SF-539, 16.4 µM (inactive); with SK-MEL-2, > 100 µM (inactive); in the assay with SK-OV-3, 63.1 µM (inactive); in the assay with T47D, 98.2 µM (inactive); in the assay on UO-31, > 100 µM (inactive).

In the case of `CCOC(=O)/C=C/C(=O)O/C=C/[N+](=O)[O-]`, the GI50 in the assay on A498 is > 100 µM (inactive); in the assay on ACHN it was > 100 µM (inactive); in the assay with CCRF-CEM it was 4.54 µM (inactive); with HCC 2998, > 100 µM (inactive); in the assay on HCT-15 it was above 100 µM; with HT-29, > 100 µM (inactive). Also, the GI50 in the assay with MCF7, in the assay on MOLT-4, in the assay on NCI-H226, with OVCAR-8, in the assay with SF-268 and in the assay on SF-539 was > 100 µM (inactive) throughout. Also, the GI50 with SK-OV-3, in the assay with T47D and with UO-31 was > 100 µM (inactive) in each case.

With `O=[N+]([O-])c1ccc(-c2nn3c(C45CC6CC(CC(C6)C4)C5)nnc3s2)c(Cl)c1`, the GI50 was > 100 µM (inactive) in the assay with A498; > 100 µM (inactive) with ACHN; > 100 µM (inactive) in the assay with CCRF-CEM; > 100 µM (inactive) in the assay on HCC 2998; above 100 µM in the assay with HCT-15; > 100 µM (inactive) with HT-29. Also, the GI50 in the assay with K562, in the assay on MOLT-4, in the assay with Malme-3M, with NCI-H226, in the assay on OVCAR-8 and in the assay on SF-268 was > 100 µM (inactive) in each case. Also, the GI50 in the assay on SF-539, with SK-MEL-2, in the assay on SK-OV-3, in the assay on T47D and with UO-31 was > 100 µM (inactive) in each case.

On to `N#Cc1[nH]c(=O)n(-c2ccccc2)c1N`, for which the GI50 was > 10 µM (inactive) in the assay with A498; > 10 µM (inactive) with ACHN; > 10 µM (inactive) with CCRF-CEM; > 10 µM (inactive) in the assay with HCC 2998; above 10 µM in the assay with HCT-15; > 10 µM (inactive) in the assay with HT-29. Besides, the GI50 in the assay on K562, in the assay with MOLT-4, in the assay on Malme-3M, in the assay with NCI-H226, in the assay with OVCAR-8 and in the assay on SF-268 was > 10 µM (inactive) throughout. Besides, the GI50 with SF-539, in the assay with SK-MEL-2, in the assay on SK-OV-3, in the assay on T47D and with UO-31 was > 10 µM (inactive) throughout.

Consider `O=[N+]([O-])c1ccc2sc(/C=N/c3ccc(O)cc3)cc2c1`, for which the GI50 was 72.8 µM (inactive) in the assay with A498; 32.2 µM (inactive) in the assay with ACHN; 22.3 µM (inactive) in the assay with BT-549; 15.3 µM (inactive) in the assay with CCRF-CEM; 21.8 µM (inactive) with HCC 2998; 32.4 µM in the assay on HCT-15. Besides, the GI50 was 46.9 µM (inactive) with HT-29; 18.1 µM (inactive) in the assay on K562; 20.1 µM (inactive) in the assay on MCF7; 15.8 µM (inactive) in the assay on MOLT-4; 28.3 µM (inactive) with Malme-3M; 32.2 µM (inactive) in the assay with OVCAR-8. In addition, the GI50 in the assay with SF-268 is 29.5 µM (inactive); with SF-539, 22 µM (inactive); in the assay on SK-MEL-2, 22 µM (inactive); in the assay with SK-OV-3, 84.7 µM (inactive); with UO-31, 41 µM (inactive).

Take `CC(=O)c1c(O)nnc(-c2ccc(Cl)cc2)c1-c1ccc(Cl)cc1`: the GI50 with A498 is 26.7 µM (inactive); with ACHN, 22 µM (inactive); in the assay on CCRF-CEM, 45.7 µM (inactive); with HCC 2998, 61.8 µM (inactive); in the assay on HCT-15, 24.2 µM; in the assay on HT-29 it was 40.5 µM (inactive). Moreover, the GI50 is 30.4 µM (inactive) in the assay with K562; 32.1 µM (inactive) in the assay on MCF7; 48.5 µM (inactive) in the assay with MOLT-4; 28.5 µM (inactive) in the assay on Malme-3M; 31.3 µM (inactive) in the assay on NCI-H226; 31.5 µM (inactive) in the assay on OVCAR-8. Also, the GI50 was > 100 µM (inactive) with SF-268; 22.7 µM (inactive) in the assay on SF-539; 25.1 µM (inactive) in the assay on SK-MEL-2; 40.8 µM (inactive) with SK-OV-3; 31.5 µM (inactive) in the assay with T47D.

`COc1cccc(-c2c(-c3ccccc3)[nH]c(C)c2C(=O)ONC(=O)c2ccccc2)c1`: the GI50 in the assay with A498 was 15 µM (inactive); in the assay on ACHN, 2.99 µM (inactive); in the assay on BT-549, 5.41 µM (inactive); with CCRF-CEM, 3.21 µM (inactive); in the assay with HCC 2998, 14.4 µM (inactive); in the assay on HCT-15, 12.1 µM. Further, the GI50 is 10 µM (inactive) with HT-29; 2.89 µM (inactive) with K562; 8.85 µM (inactive) with MCF7; 4.24 µM (inactive) in the assay on MOLT-4; 13.4 µM (inactive) with Malme-3M; 10.4 µM (inactive) in the assay on NCI-H226. The GI50 in the assay with OVCAR-8 is 5.18 µM (inactive); with SF-268, 7.57 µM (inactive); in the assay with SF-539, 6.76 µM (inactive); in the assay on SK-MEL-2, 10.4 µM (inactive); in the assay with SK-OV-3 it was 14.2 µM (inactive); in the assay with UO-31, 0.128 µM (active).
